Data as given in US4476299A, “Cyclic polyamino containing compounds having therapeutic effect and the preparation thereof” (priority 1981, dated 1984).
“Also recorded” adds a separate entry of the source. Like-named read-outs stand apart in the source and are kept apart here.

Tests used:
CD-1 (IRC) mice = assay: Neuropharmacological multidimensional observation (modified Arwin method and Smith method) in mice; type: in vivo, 4-weeks CD-1 (IRC) mice; details: i.p., 1 to 20 mg/kg, observed every 30 minutes for 180 minutes
Description: In this test, other pharmacological effects which may be obtained by these compounds were investigated.
Each compound of the invention was intraperitoneally administered to 4-weeks CD-1 (IRC) mice (Nippon Charles Liver K.K.) in the dose of 1 to 20 mg/kg with using mice groups consisting of three mice per group. […] The observation was carried out according to the modified Arwin method and Smith method, i.e., neuropharmacological multidimentional observation method.
Making a comparison between the symptom observed and the pattern of the pharmacological action due to the known medicines, it has been discovered that each compound of the invention has the following pharmacological effect.

P-388 cells = assay: Antineoplastic action against implanted P-388 tumor, CDF1 mice, i.p.-i.p. (T/C %); type: in vivo; details: for T/C (%): Table 7, P388 (i.p.-i.p.)
Description: (§1) In this animal test, the antineoplastic action against the implanted tumor was examined, in lower animals in vivo, in repsect to the compounds according to the present invention, by using CDF1 mice.
(§2) To the peritoneal cavity of each group of mice consisting of six CDF1 mice per group, 10^6 /0.1 ml of P-388 cells or 10^5 /0.1 ml of L-1210 cells were implanted. […] While to the control groups of CDF1 mice, P-388 and L-1210 cells were implanted in the same manner and they were bred without administration of the compounds. […]

[1] = Toxicity test: lethal dose in mice (Litchfield-Wilcoxon); design: species or system male 4-weeks CD-1 (ICR) mice; details: mouse, in vivo, 7 days, read-out: LD50 and 95% Confidence Limit
Description: With respect to the compounds of this invention, the lethal dose was determined as follows.
By using male 4-weeks CD-1 (ICR) mice consisting of 5 to 10 mice per group, the desired amount of each compound of this invention was suspended in 0.5% CMC solution and the resultant suspension was administered to each mouse intraperitoneally or intravenously. Observing the life or death as well as the general symptome during 7 days after the administration of the compounds, the value of LD50 for each compounds was estimated from the lethal population observed on the basis of the Litchfield-Wilcoxon method.

B-16 melanoma = assay: Antineoplastic action against B-16 melanoma, i.p.-i.p. (T/C %); type: in vivo, mice; details: for T/C (%): Table 7, B16 (i.p.-i.p.); for effective against B-16 melanoma: in words
Text: as §1
(§3) As the screening test for confirming antineoplasticity of certain compound, it is known in the art that there are two kinds of tests, one being "in vitro" test wherein carcinoma cells in propagation in a test tube are used, the other being "in vivo" test wherein lower animals implanted with carcinoma cells are used. In Japan. the "in vivo" test is usually carried out by using Ehrlich tumor, L-1210 cells, sarcoma 180 cells, Yoshida sarcoma or ascites-liver tumor as ascitic tumor and immobilized carcinoma mentioned above as fixed carcinoma. Recently, a new method for confirming the antineoplasticity has been developed, in which lymphocytic leukemia cells P-388 are used. It is known that P-388 has more strong sensitivity than L-1210. As fixed carcinoma, there may be mentioned, for example Lewis lung cancer B-16 melanoma, MM2, MOPC 104E, Colon 26, MH 134, C-1498 and the like.
(§4) The new compounds of the present invention were confirmed to be effective to the P-388 cells in the light of the screening test's results hereinbefore described.

L-1210 cells = assay: Antineoplastic action against implanted L-1210 tumor, CDF1 mice, i.p.-i.p. (T/C %); type: in vivo; details: Table 7, L1210 (i.p.-i.p.)
Description: as §1, §2

MM2 = assay: Antineoplastic action against MM2 tumor, i.p.-i.p. (T/C %); type: in vivo, mice; details: for T/C (%) / 60< (mice, fraction of group): Table 7, MM2 (i.p.-i.p.); for effective against MM2: in words
Text: as §1, §3, §4

[2] = Mus musculus, ip, Table 6, P388, dose 10 mg/kg, i.p., read-out: T/C %, (Treatment/Control %)
[3] = Mus musculus, P388, ip, read-out: T/C %, (Treatment/Control %)

| Compound | Pharmacological effect estimated (CD-1 (IRC) mice) | response vs control in vivo at 10 mg/kg (P-388 cells; [2]) [%] | LD50 at 168 h ([1]; intravenous) [mg/kg] | LD50 at 168 h ([1]; ip, intraperitoneal) [mg/kg] | T/C (%) (P-388 cells; 0.05 mg/kg) | T/C (%) (P-388 cells; 0.5 mg/kg) | T/C (%) (P-388 cells; 2 mg/kg) | T/C (%) (P-388 cells; 5 mg/kg) | T/C (%) (B-16 melanoma; 0.5 mg/kg) | T/C (%) (B-16 melanoma; 2 mg/kg) | T/C (%) (B-16 melanoma; 4 mg/kg) | effective against B-16 melanoma (B-16 melanoma) | T/C (%) (L-1210 cells; 0.5 mg/kg) | T/C (%) (L-1210 cells; 2 mg/kg) | T/C (%) (L-1210 cells; 5 mg/kg) | T/C (%) (L-1210 cells; 10 mg/kg) | T/C (%) (MM2; 0.5 mg/kg) | T/C (%) (MM2; 2 mg/kg) | response vs control in vivo at 0.5 mg/kg (P-388 cells; [3]) [%] | response vs control in vivo at 2 mg/kg (P-388 cells; [3]) [%] | further results |
| --- | --- | --- | --- | --- | --- | --- | --- | --- | --- | --- | --- | --- | --- | --- | --- | --- | --- | --- | --- | --- | --- |
| COc1ccc(CC2C(=O)NC(C)C(=O)N(C)C3Cc4ccc(cc4)Oc4cc(ccc4O)CC(C(=O)NC(C)C(=O)NC(C)C(=O)N2C)N(C)C3=O)cc1 (centres unmarked) [TPC-A] | emetic action; also recorded: anorexigenic action; also recorded: psychotropic action; also recorded: papaverine action | 187 | 34 | 16 | – | – | – | – | – | – | – | – | – | – | – | – | – | – | – | – | antineoplastic effect / effective to P-388 cells (P-388 cells; in words): has antineoplastic effect by itself |
| COc1ccc(CC2C(=O)NC(C)C(=O)N(C)C3Cc4ccc(cc4)Oc4cc(ccc4OC(C)=O)CC(C(=O)NC(C)C(=O)NC(C)C(=O)N2C)N(C)C3=O)cc1 (centres unmarked) [Ex. 22, Acetic acid ester of TPC-A] | emetic action; also recorded: psychotropic action; also recorded: antidiuretic action | 195 | 20 | 18.4 | 133.3 | 155.6 | 168.9 | 175.8 | 116.9 | 128.5 | 147.8 | effective against B-16 melanoma | 110.0 | 114.4 | 120.0 | 128.9 | 102.5 | 109.2 | – | – | response vs control in vivo at 0.05 mg/kg (P-388 cells; Mus musculus, ip, Table 6, P388, dose 0.05 mg/kg, i.p., read-out: T/C %, (Treatment/Control %)): 133%; response vs control in vivo at 0.5 mg/kg (P-388 cells; Mus musculus, ip, Table 6, P388, dose 0.5 mg/kg, i.p., read-out: T/C %, (Treatment/Control %)): 156%; response vs control in vivo at 2 mg/kg (P-388 cells; Mus musculus, ip, Table 6, P388, dose 2 mg/kg, i.p., read-out: T/C %, (Treatment/Control %)): 169%; T/C (%) (P-388 cells; 10 mg/kg): 194.7%; T/C (%) (B-16 melanoma; 8 mg/kg): 141.1%; T/C (%) (L-1210 cells; 0.05 mg/kg): 100.9%; T/C (%) (MM2; 5 mg/kg): 117.8%; T/C (%) (MM2; 10 mg/kg): 120.9%; effective against MM2 (MM2): effective |
| CCCCCCOc1ccc2cc1Oc1ccc(cc1)CC1C(=O)N(C)C(C2)C(=O)NC(C)C(=O)NC(C)C(=O)N(C)C(Cc2ccc(OC)cc2)C(=O)NC(C)C(=O)N1C (centres unmarked) [Ex. 2, n-hexylether of the compound TPC-A] | – | – | – | – | 130.4 | 143.5 | 150.0 | 176.1 | 130.5 | 158.2 | 136.2 | effective against B-16 melanoma | 115.6 | 126.6 | – | – | 110.3 | 129.3 | 137 | 154 | response vs control in vivo at 0.05 mg/kg (P-388 cells; [3]): 110%; response vs control in vivo at 4 mg/kg (P-388 cells; [3]): 173%; T/C (%) (L-1210 cells; 4 mg/kg): 130.9%; 60< (mice, fraction of group) (MM2; 2 mg/kg): 3/6; 60< (mice, fraction of group) (MM2; 4 mg/kg): 1/7; T/C (%) (MM2; 4 mg/kg): 161.8%; effective against MM2 (MM2): effective |
| COc1ccc(CC2C(=O)NC(C)C(=O)N(C)C3Cc4ccc(cc4)Oc4cc(ccc4OC)CC(C(=O)NC(C)C(=O)NC(C)C(=O)N2C)N(C)C3=O)cc1 (centres unmarked) [Methylether of TPC-A, methylether of the compound TPC-A] | emetic action; also recorded: anorexigenic action | – | 16.5 | 10 | – | 156.7 | 164.2 | – | – | 139.1 | 143.0 | – | 118.6 | 129.3 | 137.3 | – | – | 118.4 | 157 | 164 | response vs control in vivo at 0.01 mg/kg (P-388 cells; [3]): 130%; response vs control in vivo at 4 mg/kg (P-388 cells; [3]): 174%; T/C (%) (P-388 cells; 0.01 mg/kg): 130.1%; T/C (%) (P-388 cells; 1 mg/kg): 159.9%; T/C (%) (P-388 cells; 4 mg/kg): 173.6%; T/C (%) (B-16 melanoma; 1 mg/kg): 135.3%; T/C (%) (B-16 melanoma; printed "(p. 25 mg/kg)"): 133.8%; T/C (%) (L-1210 cells; 0.01 mg/kg): 105.6%; T/C (%) (L-1210 cells; 1 mg/kg): 120.7%; T/C (%) (MM2; 0.2 mg/kg): 103.1%; T/C (%) (MM2; 1 mg/kg): 103.1%; T/C (%) (MM2; 5 mg/kg): 90.8% |
| CCCCCC(=O)Oc1ccc2cc1Oc1ccc(cc1)CC1C(=O)N(C)C(C2)C(=O)NC(C)C(=O)NC(C)C(=O)N(C)C(Cc2ccc(OC)cc2)C(=O)NC(C)C(=O)N1C (centres unmarked) [Ex. 21, caproate of TPC-A] | – | – | – | – | – | – | 152.2 | – | 143.5 | 152.0 | – | – | 115.6 | 126.6 | – | 67.3 | 112.1 | 127.3 | 143 | 152 | response vs control in vivo at 0.05 mg/kg (P-388 cells; [3]): 134%; response vs control in vivo at 10 mg/kg (P-388 cells; [3]): 197%; T/C (%) (P-388 cells; 0.01 mg/kg): 133.7%; T/C (%) (P-388 cells; 0.1 mg/kg): 135.9%; T/C (%) (B-16 melanoma; 5 mg/kg): 165.5%; 60< (mice, fraction of group) (MM2; 2 mg/kg): 2/6; T/C (%) (MM2; 10 mg/kg): 93.9% |
